The test system of series [1] is Klebsiella pneumoniae. Briefly: Antibacterial activity against Klebsiella pneumoniae ATCC 700603 assessed as inhibition of bacterial growth measured after 18 hrs by resazurin dye based analysis. Format: functional.
Series [2] relates to Escherichia coli. Briefly: Antibacterial activity against Escherichia coli ATCC 25922 assessed as inhibition of bacterial growth measured after 18 hrs by resazurin dye based analysis. Format: functional. For orientation: Alamar Blue is a resazurin reagent that responds to reducing activity.
The test system of series [3] is Pseudomonas aeruginosa. Briefly: Antibacterial activity against Pseudomonas aeruginosa ATCC 27853 assessed as inhibition of bacterial growth measured after 18 hrs by resazurin dye based analysis. Format: functional.
The test system of series [4] is Staphylococcus aureus. As to the kind of experiment: Antibacterial activity against methicillin-resistant Staphylococcus aureus ATCC 43300 assessed as inhibition of bacterial growth measured after 18 hrs by resazurin dye based analysis. Format: functional.
The subject of series [5] is Acinetobacter baumannii. As to the kind of experiment: Antibacterial activity against Acinetobacter baumannii ATCC 19606 assessed as inhibition of bacterial growth measured after 18 hrs by resazurin dye based analysis. Format: functional.
The subject of series [6] is Candida albicans. As to the kind of experiment: Antifungal activity against Candida albicans ATCC 90028 assessed as fungal growth inhibition incubated for 36 hrs by resazurin dye based analysis. Format: functional.
Series [7] deals with Cryptococcus neoformans. As to the kind of experiment: Antifungal activity against Cryptococcus neoformans ATCC 208821 assessed as fungal growth inhibition incubated for 36 hrs by resazurin dye based analysis. Format: functional.
Series [8] can be described thus: Cytotoxicity against HEK293 cells assessed as cell growth inhibition measured after 20 hrs by resazurin dye based assay. The series is classed as toxicity. To be noted: human.

In brackets after ≈: the same amount, converted by molar mass. Bounds are passed on as bounds.

In the case of `C[C@]1(C(=O)NCCCNCCCCCCCCCCNCCCNC(=O)[C@@]2(C)CCC[C@]3(C)c4cc(O)ccc4CC[C@@H]23)CCC[C@]2(C)c3cc(O)ccc3CC[C@@H]12.O=C(O)C(F)(F)F.O=C(O)C(F)(F)F`, the MIC in series [1] is over 31.1 µM; in series [2] it was over 31.1 µM; in series [3], over 31.1 µM; in series [4], at most 0.24 µM; in series [5] it was over 32.1 µM; in series [6] it was over 32.1 µM. The MIC in series [7] is 3.89 µM. Further, in series [8], the IC50 at 20 h was 0.87 µM.

Take `CCCCCNC(=O)[C@@]1(C)CCC[C@]2(C)c3cc(OC(=O)CCCNCCCCCCCNCCCNC(=O)Oc4ccc5c(c4)[C@@]4(C)CCC[C@](C)(C(=O)NCCCCC)[C@@H]4CC5)ccc3CC[C@@H]12.O=C(O)C(F)(F)F.O=C(O)C(F)(F)F`: the MIC in series [1] is over 26.4 µM; in series [2], over 26.4 µM; in series [3], over 26.4 µM; in series [4], at most 0.21 µM; in series [5] it was over 26.4 µM; in series [6], at most 0.21 µM. Also, the MIC in series [7] turned out to be 3.3 µM. Further, the IC50 at 20 h in series [8] was over 26.4 µM.

On to `C[C@]1(C(=O)NCCCNCCCCCCCCCCCCNCCCNC(=O)[C@@]2(C)CCC[C@]3(C)c4cc(O)ccc4CC[C@@H]23)CCC[C@]2(C)c3cc(O)ccc3CC[C@@H]12.O=C(O)C(F)(F)F.O=C(O)C(F)(F)F`, for which the MIC in series [1] was over 30.3 µM; in series [2] it was over 30.3 µM; in series [3] it was over 30.3 µM; in series [4], at most 0.24 µM; in series [5] it was over 30.3 µM; in series [6], 7.58 µM. Besides, the MIC in series [7] was at most 0.24 µM. In addition, the IC50 at 20 h in series [8] is over 30.3 µM.

With `COC(=O)[C@@]1(C)CCC[C@]2(C)c3cc(OC(=O)CCCNCCCCCCCCCCCCNCCCNC(=O)Oc4ccc5c(c4)[C@@]4(C)CCC[C@](C)(C(=O)OC)[C@@H]4CC5)ccc3CC[C@@H]12.O=C(O)C(F)(F)F.O=C(O)C(F)(F)F`, the MIC in series [1] is over 27.3 µM; in series [2], over 27.3 µM; in series [3] it was over 27.3 µM; in series [4], at most 0.21 µM; in series [5] it was over 27.3 µM; in series [6], at most 0.21 µM. Also, the MIC in series [7] turned out to be 0.43 µM. Further, the IC50 at 20 h in series [8] is over 27.3 µM.

With `OC(Cn1cncn1)(Cn1cncn1)c1ccc(F)cc1F` [FLUCONAZOLE], the results for the MIC in series [6] and in series [7] were 0.4 µM (≈ 0.123 µg/mL) and 26 µM (≈ 7.96 µg/mL), respectively.

Take `CN[C@H](CC(C)C)C(=O)N[C@H]1C(=O)N[C@@H](CC(N)=O)C(=O)N[C@H]2C(=O)N[C@H]3C(=O)N[C@H](C(=O)N[C@H](C(=O)O)c4cc(O)cc(O)c4-c4cc3ccc4O)[C@H](O)c3ccc(c(Cl)c3)Oc3cc2cc(c3O[C@@H]2O[C@H](CO)[C@@H](O)[C@H](O)[C@H]2O[C@H]2C[C@](C)(N)[C@H](O)[C@H](C)O2)Oc2ccc(cc2Cl)[C@H]1O` [VANCOMYCIN]: the MIC in series [4] amounted to 0.7 µM (≈ 1.01 µg/mL).

For `COC(=O)[C@@]1(C)CCC[C@]2(C)c3cc(OC(=O)CCCNCCCCCCCNCCCNC(=O)Oc4ccc5c(c4)[C@@]4(C)CCC[C@](C)(C(=O)OC)[C@@H]4CC5)ccc3CC[C@@H]12.O=C(O)C(F)(F)F.O=C(O)C(F)(F)F`, the MIC is over 29.1 µM in series [1]; over 29.1 µM in series [2]; over 29.1 µM in series [3]; at most 0.23 µM in series [4]; over 29.1 µM in series [5]; at most 0.23 µM in series [6]. In addition, the MIC in series [7] is 7.26 µM. Further, the IC50 at 20 h in series [8] is over 29.1 µM.

Consider `C[C@]1(C(=O)NCCCNCCCCCCCCCCN)CCC[C@]2(C)c3cc(O)ccc3CC[C@@H]12.O=C(O)C(F)(F)F.O=C(O)C(F)(F)F`, for which the MIC in series [1], in series [2], in series [3], in series [4], in series [5] and in series [6] was over 44.8 µM in each case. Moreover, in series [7], the MIC was over 44.8 µM. The IC50 at 20 h in series [8] is over 44.8 µM.

As to `C[C@]1(C(=O)NCCCNCCCCCCCN)CCC[C@]2(C)c3cc(O)ccc3CC[C@@H]12.O=C(O)C(F)(F)F.O=C(O)C(F)(F)F`, the MIC in series [1], in series [2], in series [3], in series [4], in series [5] and in series [6] was over 47.6 µM throughout. The MIC in series [7] is over 47.6 µM. For the same compound, in series [8], the IC50 at 20 h is over 47.6 µM.

With `C[C@]1(C(=O)O)CCC[C@]2(C)c3cc(OC(=O)NCCCNCCCCCCCN)ccc3CC[C@@H]12.O=C(O)C(F)(F)F.O=C(O)C(F)(F)F`, the MIC in series [1], in series [2], in series [3], in series [4], in series [5] and in series [6] was over 44.7 µM throughout. The MIC in series [7] is over 44.7 µM. Further, in series [8], the IC50 at 20 h is over 44.7 µM.

Regarding `CC[C@H]1OC(=O)[C@H](C)[C@@H](O[C@H]2C[C@@](C)(OC)[C@@H](O)[C@H](C)O2)[C@H](C)[C@@H](O[C@@H]2O[C@H](C)C[C@H](N(C)C)[C@H]2O)[C@](C)(O)C[C@@H](C)C(=O)[C@H](C)[C@@H](O)[C@]1(C)O` [ERYTHROMYCIN], the MIC in series [2] was 174 µM (≈ 128 µg/mL).

For `CCCCCNC(=O)[C@@]1(C)CCC[C@]2(C)c3cc(OC(=O)CCCNCCCCCCCCCCNCCCNC(=O)Oc4ccc5c(c4)[C@@]4(C)CCC[C@](C)(C(=O)NCCCCC)[C@@H]4CC5)ccc3CC[C@@H]12.O=C(O)C(F)(F)F.O=C(O)C(F)(F)F`, the MIC is over 25.5 µM in series [1]; over 25.5 µM in series [2]; over 25.5 µM in series [3]; at most 0.2 µM in series [4]; over 25.5 µM in series [5]; at most 0.2 µM in series [6]. In addition, the MIC in series [7] was 3.19 µM. Further, the IC50 at 20 h in series [8] is over 25.5 µM.

As to `C[C@]1(C(=O)O)CCC[C@]2(C)c3cc(OC(=O)NCCCNCCCCCCN)ccc3CC[C@@H]12.O=C(O)C(F)(F)F.O=C(O)C(F)(F)F`, the MIC in series [1], in series [2], in series [3], in series [4], in series [5] and in series [6] was over 45.6 µM throughout. In addition, the MIC in series [7] is over 45.6 µM. For the same compound, in series [8], the IC50 at 20 h was over 45.6 µM.

`COC(=O)[C@@]1(C)CCC[C@]2(C)c3cc(OC(=O)CCCNCCCCCCCCNCCCNC(=O)Oc4ccc5c(c4)[C@@]4(C)CCC[C@](C)(C(=O)OC)[C@@H]4CC5)ccc3CC[C@@H]12.O=C(O)C(F)(F)F.O=C(O)C(F)(F)F`: the MIC in series [1] is over 28.7 µM; in series [2], over 28.7 µM; in series [3], over 28.7 µM; in series [4] it was at most 0.22 µM; in series [5], over 28.7 µM; in series [6], at most 0.22 µM. In series [7], the MIC turned out to be 0.45 µM. Besides, the IC50 at 20 h in series [8] is over 28.7 µM.

Consider `CCCCCNC(=O)[C@@]1(C)CCC[C@]2(C)c3cc(OC(=O)CCCNCCCCCCNCCCNC(=O)Oc4ccc5c(c4)[C@@]4(C)CCC[C@](C)(C(=O)NCCCCC)[C@@H]4CC5)ccc3CC[C@@H]12.O=C(O)C(F)(F)F.O=C(O)C(F)(F)F`, for which the MIC in series [1] was over 26.7 µM; in series [2], over 26.7 µM; in series [3] it was over 26.7 µM; in series [4], at most 0.21 µM; in series [5], over 26.7 µM; in series [6], 1.67 µM. Also, the MIC in series [7] turned out to be 6.68 µM. Moreover, the IC50 at 20 h in series [8] is over 26.7 µM.

Turning to `C[C@]1(C(=O)NCCCNCCCCCCCCN)CCC[C@]2(C)c3cc(O)ccc3CC[C@@H]12.O=C(O)C(F)(F)F.O=C(O)C(F)(F)F`, the MIC in series [1] is over 46.7 µM; in series [2], over 46.7 µM; in series [3] it was over 46.7 µM; in series [4], 46.7 µM; in series [5], over 46.7 µM; in series [6], over 46.7 µM. In series [7], the MIC is over 46.7 µM. In series [8], the IC50 at 20 h is over 46.7 µM.

As for `C[C@]1(C(=O)O)CCC[C@]2(C)c3cc(O)ccc3CC[C@@H]12` [PODOCARIC ACID], the MIC in series [1], in series [2], in series [3], in series [4], in series [5] and in series [6] was over 117 µM in each case. In addition, the MIC in series [7] is over 117 µM.

For `C[C@H]1c2cccc(O)c2C(=O)C2=C(O)[C@]3(O)C(=O)C(C(N)=O)=C(O)[C@@H](N(C)C)[C@@H]3[C@@H](O)[C@@H]21` [DOXYCYCLINE], the MIC in series [3] turned out to be 90 µM (≈ 40 µg/mL).

Take `C[C@]1(C(=O)O)CCC[C@]2(C)c3cc(OC(=O)NCCCNCCCCCCCCCCN)ccc3CC[C@@H]12`: the MIC in series [1], in series [2], in series [3], in series [4], in series [5] and in series [6] was over 42.2 µM in each case. For the same compound, the MIC in series [7] was over 42.2 µM.

Turning to `C[C@]1(C(=O)O)CCC[C@]2(C)c3cc(OC(=O)NCCCNCCCCN)ccc3CC[C@@H]12`, the MIC in series [1], in series [2], in series [3], in series [4], in series [5] and in series [6] was over 47.5 µM each time. The MIC in series [7] was over 47.5 µM.

Turning to `C[C@]1(C(=O)NCCCNCCCCN)CCC[C@]2(C)c3cc(O)ccc3CC[C@@H]12`, the MIC in series [1], in series [2], in series [3], in series [4], in series [5] and in series [6] was over 50.8 µM each time. The MIC in series [7] was over 50.8 µM.

As for COLISTIN, the MIC in series [1] is 0.2 µM; in series [2], 0.1 µM; in series [3] it was 0.2 µM; in series [5], 0.2 µM.

A word on the MIC: it is the least concentration at which growth counts as inhibited. As a reminder, the IC50 is the midpoint of a concentration-inhibition curve.

(Values after ChEMBL document CHEMBL5143685, “Valorisation of the diterpene podocarpic acid - Antibiotic and antibiotic enhancing activities of polyamine conjugates” (Bioorg Med Chem, 2022).)
